{
  "source": "patent EP3294317B1",
  "about": "“ENHANCED ANTIBIOTIC COMPOSITION” (Universitat Autònoma de Barcelona, priority 2015, dated 2016)",
  "key": {"[1]": {"tested_on": "Stenotrophomonas maltophilia ATCC 13637", "test": "Colistin broth microdilution MIC with potentiator compounds (Example 1)", "format": "cell-based", "details": "S. maltophilia ATCC 13637; MIC in the presence of 1.0% DMSO / MIC in the presence of 0.1 mM potentiator compound and 1.0% DMSO; positive = increased, negative = decreased susceptibility, 1 = no effect"}, "[2]": {"tested_on": "S. maltophilia 257", "test": "Broth microdilution MIC of other antibiotics with potentiator compounds, clinical isolates (Example 4)", "format": "cell-based, Stenotrophomonas maltophilia", "details": "MIC in 1.0% DMSO / MIC with 0.1 mM compound and 1.0% DMSO", "description": "Following the procedure of Example 3, ciprofloxacin, amikacin, levofloxacin, imipenem and the combination trimethoprim/sulfamethoxasole (1:19) were tested. All were purchased from Sigma-Aldrich Co.\n(§1) Minimal inhibitory concentration (MIC) of the antibiotic or the test combinations were determined by the broth microdilution method.\n(§2) Antibiotic stock solutions were prepared according to CLSI recommendations and sterilizing by passage through 0.20 µm filters.\n(§3) Antimicrobial susceptibility testing of these isolates was performed using the broth microdilution (BMD) method, according to CLSI guidelines.\nThe fold increase in bacterial susceptibility to antibiotics when combined with the potentiator compound (expressed as MIC in the presence of 1.0% DMSO / MIC in the presence of 0.1 mM of each potentiator compound and 1.0% DMSO) are shown in Table 7: […]"}, "[3]": {"tested_on": "Enterobacter aerogenes ATCC 13048", "test": "Colistin broth microdilution MIC with potentiator compounds (Example 1)", "format": "cell-based", "details": "E. aerogenes ATCC 13048; MIC in the presence of 1.0% DMSO / MIC in the presence of 0.1 mM potentiator compound and 1.0% DMSO; positive = increased, negative = decreased susceptibility, 1 = no effect"}, "[4]": {"tested_on": "Pseudomonas aeruginosa PAO1", "test": "Colistin broth microdilution MIC with potentiator compounds (Example 1)", "format": "cell-based", "details": "P. aeruginosa PAO1; MIC in the presence of 1.0% DMSO / MIC in the presence of 0.1 mM potentiator compound and 1.0% DMSO; positive = increased, negative = decreased susceptibility, 1 = no effect"}, "[5]": {"tested_on": "S. maltophilia K279a", "test": "Colistin broth microdilution MIC with compound of formula I prepared in methanol or DMSO (Example 6)", "format": "cell-based, Stenotrophomonas maltophilia", "details": "MIC in the presence of 1.0% DMSO / MIC in the presence of 0.1 mM of compound of formula I and 1.0% DMSO", "description": "(§4) The potentiator effect of the compound of the invention in a new formulation was tested by using colistin sulphate as antibiotic in combination with the enhancer compound of formula I in front of resistant clinical isolates. […]\n(§5) Tests were performed to determine the potentiator effect of the compound of the invention with two colistin resistant S. maltophilia strains as shown in Table 9. S. maltophilia K279a is a reference clinical strain. The origin of clinical strain OC323 together with K279a has been described previously (Huedo et al., Two Different rpf Clusters Distributed among a Population of Stenotrophomonas maltophilia Clinical Strains Display Differential Diffusible Signal Factor Production and Virulence Regulation, J. Bacteriol., 2014, 196, 2431-2442).\n(§6) Selected compound of formula I was first dissolved in 100% of Methanol (HPLC Gradient Grade CHROMASOLV. Sigma, 34885-1L-R) to 10 mM. The compound was fairly soluble in methanol up to 10 mM and required vigorous vortex.\n(§7) […] MICs were determined as described in the Example 1.\n(§8) Strains colistin minimal inhibitory concentration (MIC), expressed in µg/mL, and the fold increase in bacterial susceptibility to colistin when combined with the potentiator compound previously dissolved in methanol ([…]) are shown in Table 9: TABLE 9"}, "[6]": {"tested_on": "S. maltophilia OC323", "test": "Colistin broth microdilution MIC with compound of formula I prepared in methanol or DMSO (Example 6)", "format": "cell-based, Stenotrophomonas maltophilia", "details": "MIC in the presence of 1.0% DMSO / MIC in the presence of 0.1 mM of compound of formula I and 1.0% DMSO", "description": "as §4, §5, §6, §7, §8"}, "[7]": {"test": "Solubility of the stock solution in methanol", "format": "physicochemical", "details": "organic solvent or mixture; 100% Methanol; fairly soluble, required vigorous vortex", "description": "as §6"}, "[8]": {"tested_on": "S. maltophilia ATCC 13637", "test": "Broth microdilution MIC of other antibiotics with potentiator compounds (Example 2)", "format": "cell-based, Stenotrophomonas maltophilia", "description": "Following the procedure of Example 1, ciprofloxacin, amikacin, levofloxacin, tigecycline, imipenem and the combination trimethoprim/sulfamethoxasole (1:19) were tested. All were purchased from Sigma-Aldrich Co.\nas §1, §2, §3\nThe fold increase in bacterial susceptibility to antibiotics when combined with the potentiator compound (expressed as MIC in the presence of 1.0% DMSO / MIC in the presence of 0.1 mM of each potentiator compound and 1.0% DMSO) are shown in Table 4: […]"}, "[9]": {"tested_on": "Salmonella enterica subsp. enterica ATCC 14028", "test": "Colistin broth microdilution MIC with potentiator compounds (Example 1)", "format": "cell-based", "details": "S. enterica ATCC 14028; MIC in the presence of 1.0% DMSO / MIC in the presence of 0.1 mM potentiator compound and 1.0% DMSO; positive = increased, negative = decreased susceptibility, 1 = no effect"}, "[10]": {"tested_on": "Escherichia coli ATCC 25922", "test": "Colistin broth microdilution MIC with potentiator compounds (Example 1)", "format": "cell-based", "details": "E. coli ATCC 25922; MIC in the presence of 1.0% DMSO / MIC in the presence of 0.1 mM potentiator compound and 1.0% DMSO; positive = increased, negative = decreased susceptibility, 1 = no effect"}, "[11]": {"tested_on": "S. maltophilia 53149", "test": "Colistin broth microdilution MIC with potentiator compounds, resistant clinical isolates (Example 3)", "format": "cell-based, Stenotrophomonas maltophilia", "details": "MIC in the presence of 1.0% DMSO / MIC in the presence of 0.1 mM compound and 1.0% DMSO, positive = increased susceptibility, 1 = no effect", "description": "(§9) The potentiator effect of the compound of the invention and other compounds disclosed herein was tested using colistin sulfate as antibiotic and in combination with the enhancer compounds in front of resistant clinical isolates.\n(§10) Tests were performed to determine the potentiator effect of the compound of the invention and other compounds disclosed herein with multidrug-resistant S. maltophilia and A. baumannii clinical strains as shown in Table 5: TABLE 5\n(§11) For this experiment the potentiator compound was added to a colistin broth microdilution assay at a final concentration of 0.1mM. MICs were determined as described in the Example 1.\n(§12) Colistin minimal inhibitory concentration (MIC), expressed in µg/mL, and the fold increase in bacterial susceptibility to colistin when combined with the potentiator compound (expressed as MIC in the presence of 1.0% DMSO / MIC in the presence of 0.1 mM of each potentiator compound and 1.0% DMSO) are shown in Table 6: […]"}, "[12]": {"tested_on": "S. maltophilia D457", "test": "Colistin broth microdilution MIC with potentiator compounds, resistant clinical isolates (Example 3)", "format": "cell-based, Stenotrophomonas maltophilia", "details": "MIC in the presence of 1.0% DMSO / MIC in the presence of 0.1 mM compound and 1.0% DMSO, positive = increased susceptibility, 1 = no effect", "description": "as §9, §10, §11, §12"}, "[13]": {"tested_on": "S. maltophilia 197", "test": "Colistin broth microdilution MIC with potentiator compounds, resistant clinical isolates (Example 3)", "format": "cell-based, Stenotrophomonas maltophilia", "description": "as §9, §10, §11, §12"}, "[14]": {"tested_on": "S. maltophilia M30", "test": "Colistin broth microdilution MIC with potentiator compounds, resistant clinical isolates (Example 3)", "format": "cell-based, Stenotrophomonas maltophilia", "description": "as §9, §10, §11, §12"}, "[15]": {"tested_on": "S. maltophilia 257", "test": "Colistin broth microdilution MIC with potentiator compounds, resistant clinical isolates (Example 3)", "format": "cell-based, Stenotrophomonas maltophilia", "details": "MIC in the presence of 1.0% DMSO / MIC in the presence of 0.1 mM compound and 1.0% DMSO, positive = increased susceptibility, 1 = no effect", "description": "as §9, §10, §11, §12"}, "[16]": {"details": "MIC in 1.0% DMSO / MIC with 0.1 mM potentiator compound and 1.0% DMSO"}, "[17]": {"details": "MIC in the presence of 1.0% DMSO / MIC in the presence of 0.1 mM compound and 1.0% DMSO, positive = increased susceptibility, 1 = no effect"}},
  "data": [
    {"smiles": "CN(C)CCNC(=O)c1cccc(CNC(=O)Nc2ccc3c(c2)Cc2ccccc2-3)c1", "note": "[I, N-[2-(dimethylamino)ethyl]-3-[(9H-fluoren-2-ylcarbamoylamino)methyl]benzamide]", "values": [
      {"measurement": "Fold increase in bacterial susceptibility to colistin", "setting": "[1]", "value": "+64 fold"},
      {"measurement": "Fold increase in bacterial susceptibility to Levofloxacin", "setting": "[2]", "value": "Levofloxacin (2) fold"},
      {"measurement": "Fold increase in bacterial susceptibility to colistin", "setting": "[3]", "value": "+2 fold"},
      {"measurement": "Fold increase in bacterial susceptibility to colistin", "setting": "[4]", "value": "+2 fold"},
      {"measurement": "Fold increase in bacterial susceptibility to colistin", "setting": "[5]", "value": "+4 fold"},
      {"measurement": "Fold increase in bacterial susceptibility to colistin", "setting": "[6]", "value": "+4 fold"},
      {"measurement": "solubility", "setting": "[7]", "value": "≤ 10", "unit": "mM"},
      {"measurement": "Fold increase in bacterial susceptibility to Amikacin", "setting": "[8]; [16]", "value": 4, "unit": "fold"},
      {"measurement": "Fold increase in bacterial susceptibility to Ciprofloxacin", "setting": "[8]; [16]", "value": 2, "unit": "fold"},
      {"measurement": "Fold increase in bacterial susceptibility to Levofloxacin", "setting": "[8]; [16]", "value": 2, "unit": "fold"},
      {"measurement": "Fold increase in bacterial susceptibility to TMP/SMX", "setting": "[8]; Trimethoprim:sulfamethoxazole 1:19, MIC in 1.0% DMSO / MIC with 0.1 mM potentiator compound and 1.0% DMSO", "value": 2, "unit": "fold"},
      {"measurement": "Fold increase in bacterial susceptibility to colistin", "setting": "[9]", "value": "+2 fold"},
      {"measurement": "Fold increase in bacterial susceptibility to colistin", "setting": "[10]", "value": "+2 fold"},
      {"measurement": "Fold increase in bacterial susceptibility to colistin", "setting": "[11]", "value": "+4 fold"},
      {"measurement": "Fold increase in bacterial susceptibility to colistin", "setting": "[12]", "value": "+2 fold"},
      {"measurement": "Colistin susceptibility category according to the CLSI criteria in the presence of the compound", "setting": "[13]; 0.1 mM compound", "value": "become sensitive to colistin"},
      {"measurement": "Fold increase in bacterial susceptibility to colistin", "setting": "[13]; [17]", "value": "+32 fold"},
      {"measurement": "Colistin susceptibility category according to the CLSI criteria in the presence of the compound", "setting": "[14]; 0.1 mM compound", "value": "become sensitive to colistin"},
      {"measurement": "Fold increase in bacterial susceptibility to colistin", "setting": "[14]; [17]", "value": "+8 fold"},
      {"measurement": "Fold increase in bacterial susceptibility to colistin", "setting": "[15]", "value": "+4 fold"}
    ]}
  ]
}
